Patent US5578496A, “Detection of autoantibodies associated with the disease myasthenia gravis” (Board of Regents, Baylor College of Medicine, priority 1994, dated 1996)

Assays:
[1] = test system: experimental autoimmune myasthenia gravis (EAMG); experiment: Electromyography (repetitive nerve stimulation) for electrophysiological EAMG after immunization with Torpedo AChR; assay type: in vivo, C57/BL6 mice
Procedure: Six weeks old C57/BL6 mice were purchased from Charles River Breeding Laboratories (Wilmington, Mass.). Preimmune sera were obtained from the mice for use as controls in subsequent antibody binding assays. […] Then, on day 0, the mice were immunized subcutaneously in one hind footpad and intramuscularly in the same side shoulder with 20 μg of Torpedo AChR in 100 μl emulsion containing equal volumes of complete Freund's adjuvant and PBS. Thirty days later, the mice were immunized with a similar dose of the receptor in the opposite footpad and shoulder. On the 37th day, test bleeds were obtained from the mice for determination of the antibody titers. Electrophysiological studies were performed on the 38th and 39th days. Finally, the mice were sacrificed on the 40th day and lymph node cells were obtained for T cell studies. To document the electrophysiological evidence of EAMG, amplitudes of serial muscle action potentials were measured by electromyography (EMG) during the repetitive stimulation of the nerve in immunized mice, using the Mystro EMG system (TECA Corporation). A pair of wire electrodes were surgically implanted, encircling the sciatic nerve, two days before EMG. The nerve was stimulated through the implanted electrodes by 3 Hz trains of supramaximal electric current with a duration of 200 microseconds. The corresponding muscle action potentials were recorded with an electrode subcutaneously inserted over the gastrocnemius muscle. A reference electrode was placed at the ankle. Ether inhalation was used during the surgical and recording procedures. […] Students' t-test was used to analyze the differences of amplitude changes between the two groups. A typical myasthenic response of a greater than 10% decrement was considered to constitute an electrophysiological evidence of EAMG. The frequency of electrophysiological EAMG was calculated in each group and analyzed by chi-square test.

[2] = test system: antibodies against human ACHR α chain peptides; experiment: Binding of anti-peptide antibodies to the peptides on Co-Bind plate; set-up: species or system mice; conditions: antisera diluted 1:500 (v/v) with PBS/0.05% casein; corrected for nonspecific binding to casein
Procedure: Anti-peptide antibodies were raised in outbred mice by immunization in the hind footpads of 50 μg of synthetic peptide in 100 μl emulsion prepared from equal volumes of PBS and Freund's complete adjuvant. The immunizations were done on day 1, day 15, day 30 and day 45. Rabbit immune IgG fractions with specificity against human IgG and human IgM and mouse IgG and IgM were obtained from DAKO Co. (DAKO-immunoglobulins a/s, Denmark) and Accurate Chemical Scientific Corp. (Westbury, N.Y.), respectively.
1.0 mg of peptide was dissolved in 5 μl of dimethylformamide and then diluted to 50 μg/ml with 0.15M NaCl in 0.01M sodium phosphate buffer, pH 7.2, containing 0.01% thimerosal (PBS). Aliquots of the peptide solution, were applied to wells of the 96-well Co-Bind plate. The plates were incubated at room temperature overnight with continuous gentle rocking. After washing three times with PBS, the wells were quenched (3 hrs., room temperature) with 0.2 ml of 1.0M glycine-NaOH, pH 7.2. After washing the wells three times with PBS, an aliquot (100 μl) of a 0.1% solution of casein in PBS were added to each well and the plates were incubated at 37° C. for 90 min to block the remaining reactive groups on the wells. The plates were then washed three times with PBS and incubated (37° C., 4 hrs) with 100 μl of plasma or mouse antiserum (1:200 or 1:500 dilution with PBS containing 0.1% casein). For binding to peptide α182-198, the plates were blocked with, and plasma were diluted in, 0.5% (instead of 0.1%) casein in PBS. After washing four times with PBS, the plates were incubated (4° C., overnight) with 100 μl of rabbit anti-human (IgG+IgM) or anti-mouse (IgG+IgM) (2.5 μg/ml) in PBS containing 0.1% casein. The plates were washed four times with PBS and incubated (3 hrs., room temperature) with ^125 I-labeled protein A (2×10^5 cpm) in 100 μl of PBS-0.1% casein. After washing five times with PBS, bound radioactivity was removed from the wells, by the addition of 100 μl of 5% SDS in 0.2N NaOH. The plates were allowed to stand for 20 min at room temperature and the solutions were then transferred quantitatively to small test tubes for counting. This procedure was repeated three times, and the solutions in each case were added to the respective tubes. The samples were counted on a Beckman 4000 gamma counter. The radioactivity bound by three unrelated proteins (casein, cytochrome C and bovine serum albumin) and a nonsense peptide (ESSGTGIESSGTGI) (Atassi et al. 1987) were used as controls to correct for nonspecific binding. It should be noted that in other experiments, in which the plates were blocked and all dilutions were made with PBS containing human adult hemoglobin or bovine serum albumin, the non-specific binding was considerably higher than when casein was used.
To confirm that the synthetic human AChR peptides can be coupled to Co-Bind plate, they were used to raise anti-peptide antibodies in mice. The peptides were bound onto the well of Co-Bind plates, followed by reaction with the respective anti-peptide antibody, pre-diluted 1:500 (v/v) with PBS/0.05% casein.

| Compound | decremental amplitude after edrophonium ([1]; EAMG-positive mouse with -33% decrement, 3 minutes after i.p. injection of 250 μg) [%] | reversibility of typical myasthenic decremental response ([1]; i.p. injection of 250 μg) | Antibody Binding to immunizing Peptide (CPM) [2] [CPM] |
| --- | --- | --- | --- |
| CC[N+](C)(C)c1cccc(O)c1 [edrophonium chloride, reference compound] | -13 | reversible | – |
| α1-16: synthetic peptide, residues α1-16 of human AChR α-chain (SEHETRLVAKLFKDYS) | – | – | 78940 |
| α23-38: synthetic peptide, residues α23-38 of human AChR α-chain (EDHRQVVEVTVGLQLI) | – | – | 71893 |
| α34-49: synthetic peptide, residues α34-49 of human AChR α-chain (GLQLIQLINVDEVNQI) | – | – | 62360 |
| α45-60: synthetic peptide, residues α45-60 of human AChR α-chain (EVNQIVTTNVRLKQQW) | – | – | 82404 |
| α56-71: synthetic peptide, residues α56-71 of human AChR α-chain (LKQQWVDYNLKWNPDD) | – | – | 36038 |
| α67-82: synthetic peptide, residues α67-82 of human AChR α-chain (WNPDDYGGVKKIHIPS) | – | – | 22884 |
| α78-93: synthetic peptide, residues α78-93 of human AChR α-chain (IHIPSEKIWRPDLVLY) | – | – | 4433 |
| α89-104: synthetic peptide, residues α89-104 of human AChR α-chain (DLVLYNNADGDFAIVK) | – | – | 29199 |
| α100-115: synthetic peptide, residues α100-115 of human AChR α-chain (FAIVKFTKVLLQYTGH) | – | – | 57717 |
| α134-150: synthetic peptide, residues α134-150 of human AChR α-chain (HFPFDEQNGSMKLGTWT) | – | – | 52077 |
| α146-162: synthetic peptide, residues α146-162 of human AChR α-chain (LGTWTYDGSVVAINPES) | – | – | 13649 |
| α158-174: synthetic peptide, residues α158-174 of human AChR α-chain (INPESDQPDLSNFMESG) | – | – | 14799 |
| α170-186: synthetic peptide, residues α170-186 of human AChR α-chain (FMESGEWVIKESRGWKH) | – | – | 71323 |
| α194-210: synthetic peptide, residues α194-210 of human AChR α-chain (PDTPYLDITYHFVMQRL) | – | – | 66804 |
